Patent publication US11534412B2, “Application of totarol and pharmaceutical composition containing totarol” (Emergopharm SP. Z O.O. SP.K., priority 2017, dated 2022)

Tested on: Enterococcus faecalis - clinical strain
Experiment: Determination of the MIC value of totarol, broth dilution in 96-well plates with OD and quantitative culture
Type: cell-based
Conditions: for OD, average of 3 measurements: 620 nm
Experimental: Test of antibacterial activity of totarol using DMI (dimethylisosorbide) as a solvent.
1 ml of the suspension was collected to 9 ml of a TSB broth ([…]). Suspensions with a dilution of 10^−6 were prepared in the described way. A suspension with a cell density of 10^5 cfu/ml was selected for further investigations. For each strain, 2 96-well plates were prepared: the first one was intended for the OD measurement, the second one—for quantitative culture on solid media. • A/ to wells B1-D1, B2-D2 and B-D 4-11, 100 µl of the broth were added; • B/ to wells B3-D3, 200 µl of the broth were added; • C/ to wells B1-D1, 1 µl of stock I was added; • D/ to wells B2-D2, 1 µl of stock II was added; • E/ to wells B3-D3, 2 µl of stock III were added. Using a multichannel pipette, 100 µl of the sample were collected from each of the B3-D3 wells and placed in wells B4-D4 (mixing by sucking the content in and letting it out for 5 times). The pipette tips were replaced and 100 µl of the content were collected from of the B4-D4 wells, and placed in wells B5-D5, mixing as previously. These operations were repeated through the wells B11-D11. The content in the B11-D11 wells was mixed, and 100 µl of the fluid were collected and discarded. This way, a series of dilutions of totarol samples in DMI in the range of 0.32% to 0.0004% was obtained. Then, 100 µl of a corresponding bacterial culture were added to the wells B, C, D 1-11. In consequence, a change in the final concentration range occurred, to 0.16%-0.0002%. Control Preparation: • Negative control: 100 µl of the broth+1 pl DMI were added to the Al well. • Positive control (I): 100 µl of the broth with the bacterial culture were added to the wells E1-G1. • Diluent positive control (II): 100 µl of the broth with the bacterial culture+1 pl DMI were added to the wells E2-G2. The OD value in the individual wells was read at the wavelength of 620 nm (read time 0). From the second 96-well plate, a culture was inoculated by a quantitative method from every dilution onto a well with a proper solid medium, and incubated for 24 h at 37° C. under aerobic or anaerobic conditions, depending on the strain. The plates were incubated under aerobic conditions or in an atmosphere of an elevated CO2 concentration (for the strains requiring it) in an incubator at 37° C. The OD was read after 8 h, 16 h, and 24 h, respectively. Before every OD measurement, the contents of the wells were mixed delicately. In parallel to the OD readout, cultures we inoculated from the second 96-well plate, from every dilution, into plates with a proper solid medium, and incubated for 24 h at 37° C., under aerobic or anaerobic conditions. For the analysis of the experimental results, an average value of the OD measurement obtained from three repetitions in the individual times (0, 8, 16, and 24 h) for the individual microbes (Gardnerella vaginalis, Streptococcus agalactiae, Enterococcus faecalis, Lactobacillus gasseri/plantarum) was taken. Additionally, the number of bacteria grown on solid media was taken into account. The results of the tests confirm the specific, concentration-dependent selectiveness, and the high antibacterial effectiveness of totarol against the pathogenic microorganisms: Gardnerella vaginalis, Streptococcus agalactiae, Enterococcus faecalis at low MIC values safe for bacteria of the Lactobacillus genus.

## CC(C)c1c(O)ccc2c1CC[C@H]1C(C)(C)CCC[C@]21C [Totarol, totarol]
E. faecalis
  MIC value: 0.0025%
Totarol 0.0002%, 0 h
  Inoculation cfu/ml: 4 × 10^5 cfu/ml
  OD, average of 3 measurements: 0.292
Totarol 0.0002%, 8 h
  Inoculation cfu/ml: 4.1 × 10^5 cfu/ml
  OD, average of 3 measurements: 0.295
Totarol 0.0002%, 16 h
  Inoculation cfu/ml: 2.1 × 10^6 cfu/ml
  OD, average of 3 measurements: 0.490
Totarol 0.0002%, 24 h
  Inoculation cfu/ml: 1.6 × 10^7 cfu/ml
  OD, average of 3 measurements: 0.681
Totarol 0.0004%, 0 h
  Inoculation cfu/ml: 3 × 10^5 cfu/ml
  OD, average of 3 measurements: 0.298
Totarol 0.0004%, 8 h
  Inoculation cfu/ml: 2.1 × 10^5 cfu/ml
  OD, average of 3 measurements: 0.303
Totarol 0.0004%, 16 h
  Inoculation cfu/ml: 1.1 × 10^6 cfu/ml
  OD, average of 3 measurements: 0.491
Totarol 0.0004%, 24 h
  Inoculation cfu/ml: 1.9 × 10^7 cfu/ml
  OD, average of 3 measurements: 0.677
Totarol 0.0007%, 0 h
  Inoculation cfu/ml: 2.5 × 10^5 cfu/ml
  OD, average of 3 measurements: 0.288
Totarol 0.0007%, 8 h
  Inoculation cfu/ml: 3.1 × 10^5 cfu/ml
  OD, average of 3 measurements: 0.291
Totarol 0.0007%, 16 h
  Inoculation cfu/ml: 3.8 × 10^5 cfu/ml
  OD, average of 3 measurements: 0.445
Totarol 0.0007%, 24 h
  Inoculation cfu/ml: 2.1 × 10^7 cfu/ml
  OD, average of 3 measurements: 0.602
Totarol 0.0013%, 0 h
  Inoculation cfu/ml: 4 × 10^5 cfu/ml
  OD, average of 3 measurements: 0.293
Totarol 0.0013%, 8 h
  Inoculation cfu/ml: 6 × 10^4 cfu/ml
  OD, average of 3 measurements: 0.297
Totarol 0.0013%, 16 h
  Inoculation cfu/ml: 6 × 10^4 cfu/ml
  OD, average of 3 measurements: 0.399
Totarol 0.0013%, 24 h
  Inoculation cfu/ml: 1 × 10^7 cfu/ml
  OD, average of 3 measurements: 0.549
Totarol 0.0025%, 0 h
  Inoculation cfu/ml: 5 × 10^5 cfu/ml
  OD, average of 3 measurements: 0.284
Totarol 0.0025%, 8 h
  Inoculation cfu/ml: 0 cfu/ml
  OD, average of 3 measurements: 0.297
Totarol 0.0025%, 16 h
  Inoculation cfu/ml: 0 cfu/ml
  OD, average of 3 measurements: 0.295
Totarol 0.0025%, 24 h
  Inoculation cfu/ml: 0 cfu/ml
  OD, average of 3 measurements: 0.302
Totarol 0.005%, 0 h
  Inoculation cfu/ml: 6 × 10^5 cfu/ml
  OD, average of 3 measurements: 0.302
Totarol 0.005%, 8 h
  Inoculation cfu/ml: 0 cfu/ml
  OD, average of 3 measurements: 0.349
Totarol 0.005%, 16 h
  Inoculation cfu/ml: 0 cfu/ml
  OD, average of 3 measurements: 0.320
Totarol 0.005%, 24 h
  Inoculation cfu/ml: 0 cfu/ml
  OD, average of 3 measurements: 0.296
Totarol 0.01%, 0 h
  Inoculation cfu/ml: 4.1 × 10^5 cfu/ml
  OD, average of 3 measurements: 0.302
Totarol 0.01%, 8 h
  Inoculation cfu/ml: 0 cfu/ml
  OD, average of 3 measurements: 0.419
Totarol 0.01%, 16 h
  Inoculation cfu/ml: 0 cfu/ml
  OD, average of 3 measurements: 0.368
Totarol 0.01%, 24 h
  Inoculation cfu/ml: 0 cfu/ml
  OD, average of 3 measurements: 0.306
Totarol 0.02%, 0 h
  Inoculation cfu/ml: 3.1 × 10^5 cfu/ml
  OD, average of 3 measurements: 0.322
Totarol 0.02%, 8 h
  Inoculation cfu/ml: 0 cfu/ml
  OD, average of 3 measurements: 0.384
Totarol 0.02%, 16 h
  Inoculation cfu/ml: 0 cfu/ml
  OD, average of 3 measurements: 0.374
Totarol 0.02%, 24 h
  Inoculation cfu/ml: 0 cfu/ml
  OD, average of 3 measurements: 0.371
Totarol 0.04%, 0 h
  Inoculation cfu/ml: 2.6 × 10^5 cfu/ml
  OD, average of 3 measurements: 0.552
Totarol 0.04%, 8 h
  Inoculation cfu/ml: 0 cfu/ml
  OD, average of 3 measurements: 0.667
Totarol 0.04%, 16 h
  Inoculation cfu/ml: 0 cfu/ml
  OD, average of 3 measurements: 0.555
Totarol 0.04%, 24 h
  Inoculation cfu/ml: 0 cfu/ml
  OD, average of 3 measurements: 0.538
Totarol 0.08%, 0 h
  Inoculation cfu/ml: 3.2 × 10^5 cfu/ml
  OD, average of 3 measurements: 0.448
Totarol 0.08%, 8 h
  Inoculation cfu/ml: 0 cfu/ml
  OD, average of 3 measurements: 0.539
Totarol 0.08%, 16 h
  Inoculation cfu/ml: 0 cfu/ml
  OD, average of 3 measurements: 0.499
Totarol 0.08%, 24 h
  Inoculation cfu/ml: 0 cfu/ml
  OD, average of 3 measurements: 0.491
Totarol 0.16%, 0 h
  Inoculation cfu/ml: 6 × 10^5 cfu/ml
  OD, average of 3 measurements: 0.638
Totarol 0.16%, 8 h
  Inoculation cfu/ml: 0 cfu/ml
  OD, average of 3 measurements: 0.651
Totarol 0.16%, 16 h
  Inoculation cfu/ml: 0 cfu/ml
  OD, average of 3 measurements: 0.510
Totarol 0.16%, 24 h
  Inoculation cfu/ml: 0 cfu/ml
  OD, average of 3 measurements: 0.369
